From patent publication US10577351B2, “Therapeutic polymeric nanoparticles and methods of making and using same” (ASTRAZENECA AB, priority 2013, dated 2020)
Like-named read-outs stand apart in the source and are kept apart here.

What was measured:
[1] = reported (SciFinder); cited from earlier work
[2] = reported (SciFinder); cited from earlier work; remark: listed apart in the source
[3] = Acid dissociation constant (pKa); format: physicochemical
[4] = system: histone H3 phosphorylation on Ser10 (pHH3), surrogate marker of Aurora B kinase activity; assay: Tumour phospho-histone H3 (pHH3) biomarker in SW620 tumours by flow cytometry; format: in vivo, rat; details: 24 hrs post single dose 25 mg/kg IV
Protocol: This experiment compares the effect of Formulation E, F1 and F2 on a phospho-histone H3 phosphorylation (pHH3) in SW620 tumours. AZD1152 was included as a positive control. The activity was measured as an inhibition of histone H3 phosphorylation on Ser^10 (pHH3 as a sensitive, highly dynamic surrogate marker of Aurora B kinase activity). Average level of pHH3 positivity [%] was calculated for the cells in G2/M phase of the cell cycle for each treatment group at 24 hrs and 96 hrs post 1st dose and compared to the pHH3 level observed for the cells in G2/M cell cycle phase that were extracted from the tumours treated with BIND Placebo (referred here as 100%). Statistical significance was calculated using Student t-test assuming unequal variances (*p<0.05, **p<0.01, ***p<001, n.s. P>0.05). […]
The activity was measured as an inhibition of histone H3 phosphorylation on Ser10 (pHH3 as a sensitive, highly dynamic surrogate marker of Aurora B kinase activity). Average level of pHH3 positivity [%] was calculated for the cells in G2/M phase of the cell cycle for each treatment group at 24, 48, 72, 96 and 120 hrs post 1 dose and compared to the pHH3 level observed for the cells in G2/M cell cycle phase that were extracted from the tumours treated with BIND Placebo (referred here as 100%). […]

bone marrow [5] = assay: Bone marrow cellularity by FACS (total nucleated cells); format: in vivo, rat; details: 25 mg/kg IV; FIG. 14
Protocol: (§1) Rats were injected IV with BIND Placebo (0 mg/kg), or AZD1152/AZD1152 hqpa Formulation E/F1/F2 at 25 mg/kg at the times indicated and sacrificed at the times indicated.
Secondly bone marrow flushes taken to examine bone marrow cellularity by FACs. At termination bone marrow from each Femur was taken into 50% FBS and 50% PBS on ice. Cells were pelleted by centrifugation at 4° C. and re-suspended in PBS. Cells were pelleted again at 4° C. and re-suspended in PBS. 50 μl of LDS-751 (0.5 mg/ml in methanol) was added and cells vortexed. Finally the cells were filtered through a 50 micron filter into a FACS tube. Samples were analysed on a FACS Canto (Beckton Dickinson). A bone marrow hypocellularity is represented as a total of nucleated cells relative to untreated controls. The percentage cellularity of each bone marrow sample in each individual animal are shown. The dotted line represents the lowest percentage total nucleated cell value seen in animals receiving only vehicle (empty nanoparticle).

[6] = system: SW620 human tumour xenograft; assay: SW620 anti-tumour study in male nude mouse; format: in vivo
Protocol: Male nude mice were bred at AstraZeneca. Animals were inoculated in the flank with SW620 human tumour cells, and then randomized onto study when tumours reached approximately 0.25 cm^3. AZD1152 was dosed in tris buffer vehicle at the concentration indicated. AZD1152 hqpa nanoparticle formulation E was dosed in physiological saline. Previous pre-clinical work and methodologies with AZD1152 are published in Wilkinson et al, Clinical Cancer Research 2007 (13) 3682. […] In this study AZD1152 was dosed on day 0-3 at 25 mg/kg (total 100 mg/kg). Formulation E was dosed at a variety of different schedules as described above.

bone marrow [7] = assay: Bone marrow hypocellularity, pathologist assessment of haematoxylin and eosin sections; format: in vivo, rat; details: 25 mg/kg IV; day 5 and 9; FIG. 13
Protocol: Female nude rats were bred at AstraZeneca, and put into study at a minimum weight of 150 g. Animals were inoculated in the flank with SW620 human tumour cells and dosing started when tumours had reached 0.4-0.9 cm^3. Compounds were dosed intravenously (IV) at 5 ml/kg with either control, AZD1152 or AZD1152 hqpa nanoparticle formulation B or E. AZD1152 was dosed in tris buffer vehicle (days 1-4 IV, each dose at 25 mg/kg) and AZD1152 hqpa nanoparticle formulation was dosed in physiological saline (dosed 25 mg/kg on each of days 1 and 3 IV). At the time points indicated animals were sacrificed and tumour, blood and femur/bone marrow samples taken. Effects of the treatments on the tumour and the bone marrow were scored by a pathologist assessment of haematoxylin and eosin stained sections derived from the femur.
as §1
Bone marrows samples were extracted from each animal. Firstly samples of bone marrow were processed for pathological assessment. […] Bone marrow integrity was scored by the pathologist. […]
Bone marrow samples were extracted from each animal and processed for pathological assessment. […] Bone marrow integrity was scored by the pathologist. […]

O=C(O)c1cc2ccccc2c(Cc2c(O)c(C(=O)O)cc3ccccc23)c1O [pamoic acid, 4,4′-methylenebis[3-hydroxy-2-naphthoic acid]]
log P [1]: 6.169 | pKa1 [2]: 2.67

CCN(CCO)CCCOc1ccc2c(Nc3cc(CC(=O)Nc4cccc(F)c4)[nH]n3)ncnc2c1 [AZD1152 hqpa, 2-(3-((7-(3-(ethyl(2-hydroxyethyl)amino)propoxy)quinazolin-4-yl)amino)-1H-pyrazol-5-yl)-N-(3-fluorophenyl)acetamide]
pKa1 [3]: 5.7 | pKa2 [3]: 8.46

CCN(CCCOc1ccc2c(Nc3cc(CC(=O)Nc4cccc(F)c4)n[nH]3)ncnc2c1)CCOP(=O)(O)O [AZD1152, 2-(ethyl(3-((4-((5-(2-((3-fluorophenyl)amino)-2-oxoethyl)-1H-pyrazol-3-yl)amino)quinazolin-7-yl)oxy)propyl)amino)ethyl dihydrogen phosphate]
proportion of pHH3-positive cells within G2/M phase ([4]; FIG. 12): maximally suppressed | proportion of pHH3-positive cells within G2/M phase ([4]; FIG. 15): maximally suppressed | bone marrow cellularity, total nucleated cells relative to untreated controls (bone marrow [5]): large impact on bone marrow | efficacy of IV 25 mg/kg for 4 days (100 mg/kg total dose) ([6]; SW620 xenograft model in rat and mouse): maximal efficacy | dose at which maximum activity was achieved ([6]; total dose equivalent, SW620): 100 mg/kg | bone marrow hypocellularity score (0-4) (bone marrow [7]): large impact on bone marrow
